Experimental data: patent publication US12697328B2, “Methods for treating metastasis with cathepsin C inhibitors” (Shanghai Institute of Nutrition and Health, Chinese Academy …, priority 2020, dated 2026)

Legend:
[1] = test system: hepatocellular carcinoma cells HUH7; assay: NET-promoted tumor sphere formation, liver cancer; format: cell-based; conditions: neutrophil medium, CM with or without brensocatib, FIG. 11N
Protocol: (§1) To test the therapeutic effects of brensocatib in different cancer types in vitro, the ability of brensocatib to inhibit NET-promoted tumor sphere formation is investigated. The neutrophils are cultured with conditioned medium from tumor cells of colon cancer, liver cancer, lung cancer, gastric cancer and pancreatic cancer with or without brensocatib treatment to activate NETosis, and then the neutrophil medium was used in tumor sphere formation of these cancer cells to analyze the effect of neutrophil medium to facilitate tumor cell growth. The amount of tumorsphere in each sample is then determined by imaging.

[2] = test system: pancreatic cancer cells KP4; assay: NET-promoted tumor sphere formation, pancreatic cancer; format: cell-based; conditions: neutrophil medium, CM with or without brensocatib, FIG. 11O
Protocol: as §1

[3] = test system: bone-metastatic breast cancer cell SCP2; assay: Tumor sphere formation of bone-metastatic breast cancer cells in neutrophil medium; format: cell-based; conditions: neutrophils cultured with cancer cell CM with or without brensocatib, FIG. 11E
Protocol: The neutrophils are cultured with conditioned medium from the cancer cells with or without brensocatib treatment to activate NETosis, and then the neutrophil medium was used in tumor sphere formation of bone and liver-metastatic breast cancer cells to analyze the effect of neutrophil medium to facilitate tumor cell growth. The data are shown in FIG. 11E for bone-metastatic breast cancer cell SCP2 and FIG. 11H for liver-metastatic breast cancer cell SCP16.

colon cancer cells SW480 = assay: NET-promoted tumor sphere formation, colon cancer; format: cell-based; conditions: neutrophil medium, CM with or without brensocatib, FIG. 11K
Protocol: as §1

neutrophils [4] = assay: Neutrophil recruitment by cancer cell conditioned medium (Transwell chambers); format: cell-based, mice; conditions: CM of liver-metastatic breast cancer and bone-metastatic lung cancer cells, with or without brensocatib; FIGS. 11G, J
Protocol: (§2) To isolate neutrophil from bone marrow, bone marrow cells from 8 to 12-weeks-old BALB/c mice were harvested in sterile Hank's buffered salt solution (HBSS) without Ca^2+/Mg^2+ (14185052, Invitrogen), and laid on top of a 2-layer Percoll (17089102, GE Healthcare) gradient (72% and 63.5% in HBSS), followed by centrifugation at 1,200 g for 30 min at 25° C. Neutrophils enriched in the interface of 63.5%-72% fractions were confirmed to be of >95% purity by flow cytometry analysis. To isolate neutrophils from peripheral blood of mice, whole blood was collected via cardiac puncture (1 ml per animal) and suspended in HBSS (2 ml per animal) with 15 mM EDTA. After centrifugation (400 g, 10 min, 4° C.), white cells were resuspended in 2 ml HBSS with 2 mM EDTA. Then, the cells were centrifuged (1500 g, 30 min, room temperature) in a three-layer Percoll gradient (78%, 69%, and 52%) without braking. […] The purity of the isolated neutrophils was determined by May-Grunwald-Giemsa staining (40751ES02, Yea-sen). […]
The procedure of two-chamber migration assays was previously described (Zhuang et al., “Differential effects on lung and bone metastasis of breast cancer by Wnt signalling inhibitor DKK1,” Nat. Cell Biol. 19:1274-1285 (2017)). […] The migrated cells in the lower chamber were counted after 3 h. […]

neutrophils [5] = assay: Formation of NETs in neutrophils stimulated by cancer cell conditioned medium (immunofluorescence, MPO and Ci-H3); format: cell-based, mice; conditions: CM of lung-/liver-metastatic breast cancer and bone-metastatic lung cancer cells, with or without brensocatib; FIGS. 11D, F, I
Protocol: as §2, with “EDTA.” for “EDTA. Then, the cells were centrifuged (1500 g, 30 min, room temperature) in a three-layer Percoll gradient (78%, 69%, and 52%) without braking.”
To assess NET formation, neutrophils (2.5×10^5 cells) were seeded on coverslips coated with poly-L-lysine (P4707, Sigma) in 24-well plates for 30 min before adding 10% cancer cell CM, Sivelestat (10 μM), PMA (20 nM, Sigma), Cl-amidine (100 μM, Selleck) and/or DNase I (1 μg/ml). […] NET area quantification was performed using the DANA method (Rebernick et al., “DNA area and NETosis analysis (DANA): a high-throughput method to quantify neutrophil extracellular traps in fluorescent microscope images,” Biol. Proced. Online 20:7 (2018)). […]

## Cn1c(=O)oc2ccc(-c3ccc(C[C@@H](C#N)NC(=O)[C@@H]4CNCCCO4)cc3)cc21 [brensocatib, (2S)—N-{(1S)-1-cyano-2-[4-(3-methyl-2-oxo-2,3-dihydro-1,3-benzoxazol-5-yl)phenyl]ethyl}-1,4-oxazepane-2-carboxamide]
[1]
  NET-promoted tumor sphere formation (in vitro tumor growth): inhibit in vitro tumor growth
[2]
  NET-promoted tumor sphere formation (in vitro tumor growth): inhibit in vitro tumor growth
[3]
  capability of drug-treated neutrophils to facilitate tumor cell growth (tumor sphere formation): significantly weakened
Colon cancer cells SW480
  NET-promoted tumor sphere formation (in vitro tumor growth): inhibit in vitro tumor growth
Neutrophils [4]
  neutrophil recruitment: significantly reduced
Neutrophils [5]
  formation of NETs: significantly reduced
